Laboratory results published in publication PMC9229493, “Talaromarins A–F: Six New Isocoumarins from Mangrove-Derived Fungus Talaromyces flavus TGGP35” (Marine Drugs, 2022).
In brackets after ≈: the same amount, converted by molar mass.

What was measured:
[1] = Antioxidant activity assay (ABTS working solution, 734 nm)
Method: The antioxidant activity assay was based on the reported methods. The assay was performed on a 96-well microplate, the reaction was initiated by adding 10 µL of sample solution to 200 µL of ABTS working solution. […] The inhibition rate of each sample was calculated according to the following formula: inhibition rate = [(Ablank − Acompound)/Ablank] × 100%.

α-glucosidase = assay: Inhibitory activity against α-glucosidase (PNPG, 405 nm); conditions: read-out: α-glucosidase inhibitory activity IC50; 37 °C, pH 6.8, PNPG substrate
[2] = test system: S. epidermidis (ATCC 17749); assay: Antibacterial activity, microplate assay; assay type: cell-based; conditions: Staphylococcus epidermidis, ATCC17749

| IC50 [1] [µM] | IC50 (α-glucosidase) [µM] | MIC [2] [µg/mL] | Structure (SMILES) |
| --- | --- | --- | --- |
| 160 | 380 | – | COc1c(O)ccc2c1C(=O)O[C@H](CCCC(C)=O)C2 [Compound 18, peniciisocoumarin D] |
| 170 | – | – | O=C1O[C@H](CCCO)Cc2cccc(O)c21 [Compound 7, (R)-3-(3-hydroxypropyl)-8-hydroxy-3,4-dihydroisocoumarin] |
| 110 | 100 | – | CC(O)CCCC1Cc2c(ccc(O)c2O)C(=O)O1 (centres unmarked) [Compound 10, 5,6-dihydroxy-3-(4-hydroxypentyl)-isochroman-1-one] |
| – | 540 | – | COc1c(C)c(O)cc2cc(C[C@H](C)O)oc(=O)c12 [Compound 23, pestalotiorin] |
| 150 | – | – | CC(=O)OCCC[C@@H]1Cc2cccc(O)c2C(=O)O1 [Compound 19, peniciisocoumarin G] |
| – | 620 | – | COC(=O)CC[C@@H]1Cc2ccc(OC)c(O)c2C(=O)O1 [Compound 21, penicimarin N] |
| – | – | 0.195 (≈ 0.589 µM) | O=C(O)c1cn(C2CC2)c2cc(N3CCNCC3)c(F)cc2c1=O [ciprofloxacin] |
| 140 | – | – | CC(=O)CCC[C@@H]1Cc2ccc(O)c(O)c2C(=O)O1 [Compound 6, Talaromarin F] |
| 130 | – | – | COc1ccc2c(c1O)C(=O)O[C@H](CCCO)C2 [Compound 8, peniciisocoumarin C] |
| 100 | – | – | COc1c(O)ccc2c1C(=O)OC(CCCO)C2 (centres unmarked) [Compound 9, 7-hydroxy-3-(3-hydroxypropyl)-8-methoxyisochroman-1-one] |
| 120 | – | – | COc1ccc(O)c2c1C(=O)O[C@H](CCCC(C)=O)C2 [Compound 17, penicimarin H] |
| 290 | – | – | Cc1c(C)c2c(c(C)c1O)CCC(C)(C(=O)O)O2 (centres unmarked) [Trolox, trolox, reference compound] |
| 120 | – | – | CC(O)CCCC1Cc2c(O)ccc(O)c2C(=O)O1 (centres unmarked) [Compound 11, peniciisocoumarin F] |
| 28400 | – | – | COc1ccc2c(c1O)C(=O)O[C@H](CCC[C@@H](C)O)C2 [Compound 2, Talaromarin B] |
| 9 | – | – | Cc1c(O)cc2cc(CC(C)O)oc(=O)c2c1O (centres unmarked) [Compound 22, 6,8-dihydroxy-3-(2-hydroxypropyl)-7-methyl-1H-isochromen-1-one] |
